# Active and inactive are the calls of the source. The rule behind the calls is not given here.
# How the values were obtained:
# MCF-10A [1] = test: Cytotoxicity against human MCF-10A cells at <= 25 uM after 72 hrs by MTT assay; assay type: cell-based
# MCF7 = test: Cytotoxicity against human MCF7 cells assessed as inhibition of cell proliferation after 72 hrs by MTT assay; assay type: functional, cell-based; details: MCF7, 72 h
# MCF-10A [2] = test: Cytotoxicity against human MCF-10A cells at 100 uM after 72 hrs by MTT assay; assay type: cell-based
# HepG2 = test: Cytotoxicity against human HepG2 cells assessed as inhibition of cell proliferation after 72 hrs by MTT assay; assay type: functional, cell-based; details: HepG2, 72 h
# A549 = test: Cytotoxicity against human A549 cells assessed as inhibition of cell proliferation after 72 hrs by MTT assay; assay type: functional, cell-based; details: A549, 72 h
# MCF-10A [3] = test: Cytotoxicity against human MCF-10A cells at 50 uM after 72 hrs by MTT assay; assay type: cell-based
# MCF-10A [4] = test: Cytotoxicity against human MCF-10A cells assessed as reduction in cell viability after 72 hrs by MTT assay; assay type: cell-based
# [5] = biological target: T1, DNA topoisomerase 2-alpha (Homo sapiens, UniProt P11388); test: Inhibition of human topoisomerase-2 alpha in human A498 cells assessed as decrease in relaxation of supercoiled DNA at 10 uM; assay type: cell-based
# [6] = biological target: T1, DNA topoisomerase 2-alpha; test: Inhibition of human topoisomerase-2alpha assessed as reduction in pBR322 DNA relaxation by gel electrophoresis method
# T1 sequence (P11388 whole entry): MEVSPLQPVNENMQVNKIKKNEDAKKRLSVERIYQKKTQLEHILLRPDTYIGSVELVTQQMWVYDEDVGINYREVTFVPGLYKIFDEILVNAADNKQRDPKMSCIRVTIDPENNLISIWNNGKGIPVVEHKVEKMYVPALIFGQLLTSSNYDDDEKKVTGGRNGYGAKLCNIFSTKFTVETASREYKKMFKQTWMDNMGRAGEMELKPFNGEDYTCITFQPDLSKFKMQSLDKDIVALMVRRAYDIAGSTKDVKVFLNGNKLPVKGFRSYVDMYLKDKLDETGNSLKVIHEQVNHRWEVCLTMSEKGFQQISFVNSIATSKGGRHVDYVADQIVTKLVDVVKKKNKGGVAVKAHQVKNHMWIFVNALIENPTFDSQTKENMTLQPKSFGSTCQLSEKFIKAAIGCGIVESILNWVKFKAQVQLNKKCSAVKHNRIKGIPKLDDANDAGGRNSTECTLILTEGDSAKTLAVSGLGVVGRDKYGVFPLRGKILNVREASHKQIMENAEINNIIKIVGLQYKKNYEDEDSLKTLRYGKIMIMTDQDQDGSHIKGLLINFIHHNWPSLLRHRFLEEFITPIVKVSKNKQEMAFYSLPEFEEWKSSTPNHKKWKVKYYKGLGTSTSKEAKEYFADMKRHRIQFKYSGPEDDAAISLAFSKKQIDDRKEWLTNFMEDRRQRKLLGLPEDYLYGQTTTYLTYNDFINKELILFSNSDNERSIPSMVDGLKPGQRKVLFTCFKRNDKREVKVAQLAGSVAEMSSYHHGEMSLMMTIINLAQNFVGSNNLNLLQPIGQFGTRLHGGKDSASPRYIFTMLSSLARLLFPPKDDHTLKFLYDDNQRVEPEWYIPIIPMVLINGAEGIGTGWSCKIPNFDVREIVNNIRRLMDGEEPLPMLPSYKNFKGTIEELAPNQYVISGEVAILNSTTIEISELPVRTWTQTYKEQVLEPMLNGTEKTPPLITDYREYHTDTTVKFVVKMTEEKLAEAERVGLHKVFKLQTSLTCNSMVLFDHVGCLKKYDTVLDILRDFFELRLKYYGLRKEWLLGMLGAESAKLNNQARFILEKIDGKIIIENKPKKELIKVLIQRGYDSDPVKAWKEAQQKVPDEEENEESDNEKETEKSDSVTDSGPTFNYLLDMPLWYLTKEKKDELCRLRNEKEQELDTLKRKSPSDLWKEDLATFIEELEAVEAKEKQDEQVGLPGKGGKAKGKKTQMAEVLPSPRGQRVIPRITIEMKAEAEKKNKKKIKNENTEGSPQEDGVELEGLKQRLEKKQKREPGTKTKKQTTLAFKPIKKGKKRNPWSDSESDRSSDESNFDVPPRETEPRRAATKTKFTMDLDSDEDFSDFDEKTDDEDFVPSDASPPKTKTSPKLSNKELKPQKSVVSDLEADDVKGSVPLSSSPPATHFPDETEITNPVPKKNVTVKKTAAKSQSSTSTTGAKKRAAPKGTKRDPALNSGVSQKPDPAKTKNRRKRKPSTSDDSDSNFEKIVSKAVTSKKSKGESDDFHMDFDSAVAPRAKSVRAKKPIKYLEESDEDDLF
Structure (SMILES),Activity (MCF-10A [1]),IC50 (MCF7) [µM],Activity (MCF-10A [2]),IC50 (HepG2) [µM],IC50 (A549) [µM],Activity (MCF-10A [3]),IC50 (MCF-10A [4]) [µM],IC50 [5] [µM],inhibition [6]
Cc1ccc(-n2c(-c3coc4cc(C)c(Cl)cc4c3=O)nc(-c3ccccc3)c2-c2ccccc2)cc1,Non-Toxic,12.5,Toxic,6.25,12.5,–,–,–,–
N#CC1=C(N)Oc2c(c(=O)oc3ccccc23)C1C1CC1 (configuration not stated),Non-Toxic,25,Toxic,12.5,25,–,–,–,–
Cc1cc2occ(-c3nc(-c4ccccc4)c(-c4ccccc4)n3-c3ccccc3Cl)c(=O)c2cc1Cl,Non-Toxic,3.12,Toxic,6.25,12.5,–,–,–,–
Cc1ccc(-n2c(-c3coc4cc(C)c(Cl)cc4c3=O)nc(-c3ccccc3)c2-c2ccccc2)c(C)c1,Non-Toxic,6.25,Toxic,3.12,6.25,–,–,–,–
Cc1cc2occ(-c3nc(-c4ccccc4)c(-c4ccccc4)n3-c3ccc(Cl)cc3)c(=O)c2cc1Cl,Non-Toxic,12.5,–,1.56,12.5,Toxic,92,–,–
Cc1cccc(-n2c(-c3coc4cc(C)c(Cl)cc4c3=O)nc(-c3ccccc3)c2-c2ccccc2)c1,Non-Toxic,12.5,Toxic,6.25,12.5,–,–,–,–
Cc1cc2occ(-c3nc(-c4ccccc4)c(-c4ccccc4)n3-c3ccc([N+](=O)[O-])cc3)c(=O)c2cc1Cl,Non-Toxic,6.25,Toxic,25,3.12,–,> 100,48.4,–
N#CC1=C(N)Oc2c(c(=O)oc3ccccc23)C1c1cc2ccccc2c2ccccc12 (configuration not stated),Non-Toxic,25,Toxic,25,25,–,–,–,–
Cc1cc2occ(-c3nc(-c4ccccc4)c(-c4ccccc4)n3-c3ccc(Br)cc3)c(=O)c2cc1Cl,Non-Toxic,1.56,–,6.25,25,Toxic,> 100,17.1,–
N#CC1=C(N)Oc2c(c(=O)oc3ccccc23)C1c1cc2ccccc2s1 (configuration not stated),Non-Toxic,1.56,–,6.25,1.56,Toxic,98,10.3,Active
Cc1cc2occ(-c3nc(-c4ccccc4)c(-c4ccccc4)n3-c3cccc(Cl)c3)c(=O)c2cc1Cl,Non-Toxic,6.25,Toxic,25,25,–,–,–,–
Cc1cc2occ(C3C(C#N)=C(N)Oc4c3c(=O)oc3ccccc43)c(=O)c2cc1Cl (configuration not stated),Non-Toxic,6.25,Toxic,12.5,6.25,–,–,–,–
N#CC1=C(N)Oc2c(c(=O)oc3ccccc23)C1c1c2ccccc2cc2ccccc12 (configuration not stated),Non-Toxic,12.5,Toxic,25,25,–,–,–,–
N#CC1=C(N)Oc2c(c(=O)oc3ccccc23)C1c1cnc2ccccc2c1 (configuration not stated),Non-Toxic,1.56,–,6.25,6.25,Toxic,94,16.7,–
COc1ccccc1-n1c(-c2coc3cc(C)c(Cl)cc3c2=O)nc(-c2ccccc2)c1-c1ccccc1,Non-Toxic,25,Toxic,12.5,12.5,–,–,–,–
N#CC1=C(N)Oc2c(c(=O)oc3ccccc23)C1c1cc(=O)c2ccccc2o1 (configuration not stated),Non-Toxic,12.5,–,6.25,1.56,Toxic,90,26.4,–
Cc1cc2occ(-c3nc(-c4ccccc4)c(-c4ccccc4)n3-c3cccc([N+](=O)[O-])c3)c(=O)c2cc1Cl,Non-Toxic,1.56,–,25,6.25,Toxic,–,–,–
COc1cccc(-n2c(-c3coc4cc(C)c(Cl)cc4c3=O)nc(-c3ccccc3)c2-c2ccccc2)c1,Non-Toxic,25,Toxic,6.25,6.25,–,–,–,–
COc1ccc(C2C(C#N)=C(N)Oc3c2c(=O)oc2ccccc32)c(OC)c1 (configuration not stated),Non-Toxic,25,Toxic,3.12,6.25,–,–,–,–
N#CC1=C(N)Oc2c(c(=O)oc3ccccc23)C1c1c[nH]c2ccccc12 (configuration not stated),Non-Toxic,1.56,–,12.5,1.56,Toxic,94,12.4,Active
Cc1cc2occ(-c3nc(-c4ccccc4)c(-c4ccccc4)n3-c3ccc(Cl)c(Cl)c3)c(=O)c2cc1Cl,Non-Toxic,1.56,–,12.5,6.25,Toxic,98,39.9,–
